Among the data in PubChem BioAssay AID788 (SRMLSC, 2007) are IC50 values, retold here.

Activity calls are given as the source filed them. How the calls were made is not given here.

Assay [1] relates to S. cerevisiae vps1Δ apl2Δ growth inhibition, dose response. The experiment in a line: growth inhibition of vps1Δ apl2Δ yeast, dose response, post-Golgi transport modulator project, S. cerevisiae, background strain comparison (AID 788).
For assay [2], the system named is S. cerevisiae wild-type background strain growth inhibition. Described as above. The conditions noted are these: S. cerevisiae vps1Δ apl2Δ growth inhibition, dose response; measured here: wild-type background strain growth.

On to `CCN1CCN(c2c(Cl)cccc2NC(=O)c2ccc(Br)o2)CC1`, for which the figures for the IC50 in assay [1] and in assay [2] were > 10 µM (inactive) and over 10 µM, respectively.

In the case of `c1coc(CNc2nc(N3CCCCC3)nc3ccccc23)c1`, the IC50 in assay [1] was > 10 µM (inactive); in assay [2] it was over 10 µM.

For `CCCCSCCCNC(=O)Nc1cccc(OC)c1`, the IC50 in assay [1] is > 10 µM (inactive); in assay [2], over 10 µM.

`COc1ccc(NC(=O)N(C2CCCCC2)C(C)c2cccnc2)c(OC)c1` (stereo unspecified): the figures for the IC50 in assay [1] and in assay [2] were 9.51 µM and 16.7 µM, respectively.

For the compound `CC(C)c1ccc(C2C3CSCC=C3C(C#N)=C(N)C2(C#N)C#N)cc1` (stereo unspecified), the IC50 in assay [1] is 2.08 µM (inactive); in assay [2], 0.843 µM.

Consider `CCC(C)c1ccc(OCCCCN2CCOCC2)cc1` (stereo unspecified), for which the IC50 is 4.71 µM in assay [1] and over 10 µM in assay [2].

In the case of `CC1CCCCN1CCNC(=O)Cn1nc(-c2ccccc2)ccc1=O` (stereo unspecified), the IC50 is > 10 µM (inactive) in assay [1] and over 10 µM in assay [2].

In the case of `COc1ccc(/C=C2\SC(=S)N(NC(=O)c3csc4c3CCCC4)C2=O)cc1`, the IC50 in assay [1] is > 10 µM (inactive); in assay [2], over 10 µM.

`O=C1OCC(CO)(CO)N=C1NNc1ccc(Cl)c(Cl)c1`: the IC50 was 2.85 µM in assay [1] and 3.35 µM in assay [2].

As for `COc1cccc(OCCCCN2CC(C)OC(C)C2)c1` (stereo unspecified), the IC50 in assay [1] was 4.38 µM; in assay [2], over 10 µM.

For `OC(c1ccc(Cl)cc1Cl)C(Cc1cccnc1)n1cncn1` (stereo unspecified), the IC50 in assay [1] is > 10 µM (inactive); in assay [2], over 10 µM.

`CC(NC(=O)CSc1nc2c(cc1C#N)CN(C)CC2)c1ccccc1` (stereo unspecified): the IC50 in assay [1] is > 10 µM (inactive); in assay [2], over 10 µM.

In the case of `COc1cccc(-c2cc(C(=O)N3CCN(C(c4ccccc4)c4ccccc4)CC3)no2)c1`, the values for the IC50 in assay [1] and in assay [2] were > 10 µM (inactive) and over 10 µM, respectively.

Regarding `Cc1ccc(/C=N/n2cnc3sc(-c4ccccc4)cc3c2=O)o1`, the IC50 was > 10 µM (inactive) in assay [1] and over 10 µM in assay [2].

Regarding `CC(C)Oc1ccc(/C(O)=C2/C(=O)C(=O)N(CCN(C)C)C2c2ccco2)cc1` (stereo unspecified), the IC50 in assay [1] was > 10 µM (inactive); in assay [2] it was over 10 µM.

In the case of `c1ccc(Nc2cc(-c3ccccc3)nc3ncnn23)cc1`, the half-inhibitory concentration (IC50) was 6.29 µM in assay [1] and over 10 µM in assay [2].

As to `C/C(CCC12CC3CC(CC(C3)C1)C2)=N\NC(N)=S`, the IC50 was 1.65 µM in assay [1] and 5.28 µM in assay [2].

As to `Cc1c(C)c2cc(Cl)c(O)c(CN3CCN(C)CC3)c2oc1=O`, the results for the IC50 in assay [1] and in assay [2] were > 10 µM (inactive) and over 10 µM, respectively.

As to `O=C1c2cccc3c([N+](=O)[O-])ccc(c23)C(=O)N1c1ccc(Cl)cn1`, the IC50 in assay [1] was 18 µM (inactive); in assay [2], 6.08 µM.

With `O=C1CN(C(=O)CSc2nnc(-c3ccccc3)n2Cc2ccc3c(c2)OCO3)c2ccccc2N1`, the IC50 is > 10 µM (inactive) in assay [1] and over 10 µM in assay [2].

As for `CCn1c(=O)[nH]c2cc(C(=O)N3CCN(c4ccccc4)CC3)ccc2c1=O`, the IC50 is > 10 µM (inactive) in assay [1] and over 10 µM in assay [2].

Regarding `CCCCCCCCNc1ncnc2ccccc12`, the IC50 is > 10 µM (inactive) in assay [1] and 14.8 µM in assay [2].

For `COc1ccc(C(=O)c2c(C(F)(F)F)oc3c2C(=O)c2ccccc2C3=O)cc1`, the IC50 in assay [1] is 22.7 µM (inactive); in assay [2] it was 2.32 µM.

In the case of `CC1CCCCC1NC(=O)CSc1nnnn1-c1ccccc1` (stereo unspecified), the IC50 in assay [1] is > 10 µM (inactive); in assay [2], over 10 µM.

As to `COc1cccc(NC(=O)c2ccc(CN3CCN(c4ccccc4)CC3)cc2)c1`, the IC50 is > 10 µM (inactive) in assay [1] and over 10 µM in assay [2].

`CC1CN(CC(O)COc2ccc(C(C)C)cc2)CC(C)O1` (stereo unspecified): the IC50 was 15.2 µM in assay [1] and over 10 µM in assay [2].

Turning to `N#Cc1nc(COc2ccc(-c3ccccc3)cc2)oc1NCCCN1CCOCC1`, the IC50 in assay [1] was 13.8 µM; in assay [2], 15.4 µM.

As to `CCOC(=O)c1c(-n2c(C)cc(C=C3C(=O)NC(=S)NC3=O)c2C)sc2c1CCCC2`, the IC50 is > 10 µM (inactive) in assay [1] and 11.5 µM in assay [2].

As to `c1ccc(COc2ccc(CN3CCN(c4ccccn4)CC3)cc2)cc1`, the IC50 in assay [1] is > 10 µM (inactive); in assay [2], over 10 µM.

With `Cc1cc(C)nc(NC(=O)CSc2nn(C)c(=S)s2)n1`, the IC50 was > 10 µM (inactive) in assay [1] and over 10 µM in assay [2].

As for `c1ccc(-c2ccc(-c3cnc4n3CCCCC4)cc2)cc1`, the IC50 in assay [1] is > 10 µM (inactive); in assay [2], over 10 µM.

Regarding `CC(C)OC(=O)CSc1nnc(-c2ccc(Cl)cc2)n1N`, the IC50 was > 10 µM (inactive) in assay [1] and over 10 µM in assay [2].

Regarding `O=Cc1cc2ccccc2nc1SCc1ccc(Cl)cc1`, the results for the IC50 in assay [1] and in assay [2] were > 10 µM (inactive) and over 10 µM, respectively.

On to `COc1cccc(C(=O)N2CCN(C3CCC(c4ccccc4)CC3)CC2)c1OC` (stereo unspecified), for which the results for the IC50 in assay [1] and in assay [2] were 5.37 µM and 23.9 µM, respectively.

As to `Cc1ccc(S(=O)(=O)c2c(C)nn(C(C)(C)C)c2OC(=O)c2ccc(Br)o2)cc1`, the IC50 in assay [1] was > 10 µM (inactive); in assay [2], over 10 µM.

As for `Cc1ccc(SC(C)C(=O)Nc2ncn[nH]2)cc1` (stereo unspecified), the IC50 in assay [1] is > 10 µM (inactive); in assay [2], over 10 µM.

With `O=C(NCC(c1cccnc1)N1CCN(c2ccccc2)CC1)c1ccc2c(c1)OCO2` (stereo unspecified), the IC50 in assay [1] is > 10 µM (inactive); in assay [2], over 10 µM.

Turning to `COc1ccc2nc(NCCCNC(=O)c3cc(OC)c(OC)c(OC)c3)c(C#N)cc2c1`, the IC50 in assay [1] was > 10 µM (inactive); in assay [2] it was over 10 µM.

For the compound `O=C(c1ccco1)N1CCN=C1SCc1cccnc1`, the IC50 in assay [1] is > 10 µM (inactive); in assay [2] it was over 10 µM.

As to `O=C(N/N=C/c1ccc([N+](=O)[O-])o1)c1cc(-c2cccc(Br)c2)nc2ccccc12`, the IC50 is 1.02 µM in assay [1] and 4.65 µM in assay [2].

With `O=C(Nc1nnc(C2CC2)o1)c1ccc(S(=O)(=O)N2CCCc3ccccc32)cc1`, the IC50 in assay [1] is > 10 µM (inactive); in assay [2], 3.17 µM.

Consider `COC(=O)c1ccc(CSc2nnc(NC(C)C)s2)cc1`, for which the IC50 in assay [1] was > 10 µM (inactive); in assay [2] it was over 10 µM.

In the case of `O=C(Nc1nnc(-c2ccccc2)o1)c1ccc(Cl)cc1`, the IC50 in assay [1] was 2.46 µM (inactive); in assay [2], 0.65 µM.

For `O=C(OCn1ncc(Cl)c(Cl)c1=O)c1ccc(C(F)(F)F)cc1`, the IC50 was 23.2 µM in assay [1] and over 10 µM in assay [2].

`Cc1cccc(-n2c(N)c(C(=O)NCCN3CCOCC3)c3nc4ccccc4nc32)c1`: the values for the IC50 in assay [1] and in assay [2] were > 10 µM (inactive) and over 10 µM, respectively.

Turning to `Cc1cc(O)c(/C=N/Nc2ccc(Cl)cc2)c(=O)o1`, the IC50 was 3.33 µM in assay [1] and 4.69 µM in assay [2].

Regarding `Clc1ccc(Cn2nnc(-c3ccc(CN4CCOCC4)cc3)n2)cc1`, the results for the IC50 in assay [1] and in assay [2] were 1.33 µM and over 10 µM, respectively.

For the compound `N#Cc1cn(-c2ccccc2)nc1-c1cc2ccccc2oc1=O`, the IC50 in assay [1] is > 10 µM (inactive); in assay [2], over 10 µM.

`O=c1cccc2n1CC1CC2CN(S(=O)(=O)c2ccccc2)C1` (stereo unspecified): the IC50 was > 10 µM (inactive) in assay [1] and over 10 µM in assay [2].

For `Cn1nnc2cc(C(=O)Nc3cccnc3)ccc21`, the values for the IC50 in assay [1] and in assay [2] were > 10 µM (inactive) and over 10 µM, respectively.

Consider `CC(=O)Nc1ccccc1NS(=O)(=O)c1ccc(Cl)cc1`, for which the IC50 was > 10 µM (inactive) in assay [1] and over 10 µM in assay [2].

On to `O=C(NCc1ccccc1)NS(=O)(=O)c1ccccc1Cl`, for which the values for the IC50 in assay [1] and in assay [2] were > 10 µM (inactive) and over 10 µM, respectively.

`CC1=CC(C)(C)Nc2ccc(OC(=O)CN3C(=O)c4cccc5cccc(c45)C3=O)cc21`: the IC50 in assay [1] is > 10 µM (inactive); in assay [2] it was over 10 µM.

`CCc1ccc(N(C(=O)c2csnn2)C(C(=O)NC(C)(C)C)c2ccncc2)cc1` (stereo unspecified): the IC50 in assay [1] is > 10 µM (inactive); in assay [2], over 10 µM.

For `O=C(NC1CCCC1)C(c1ccsc1)N(C(=O)Cc1cccs1)c1ccc(F)cc1` (stereo unspecified), the IC50 is > 10 µM (inactive) in assay [1] and over 10 µM in assay [2].

Take `O=S(=O)(c1cnccc1N1CCN(/N=C/c2ccc(Br)cc2)CC1)N1CCCCC1`: the IC50 in assay [1] was > 10 µM (inactive); in assay [2], over 10 µM.

Turning to `CCC(=O)c1ccc(N2CCN(C(=O)c3ccc(Br)cc3)CC2)c(F)c1`, the IC50 in assay [1] was 25 µM; in assay [2], over 10 µM.

With `Cc1ccc(CN2CCN(/N=C/c3cc(Br)ccc3O)CC2)cc1`, the IC50 was 4.32 µM in assay [1] and over 10 µM in assay [2].

`O=C(OCn1ncc(Br)c(Br)c1=O)c1ccc(F)cc1`: the values for the IC50 in assay [1] and in assay [2] were 5.12 µM and 5.38 µM, respectively.

As for `CC(C)Cc1[nH]c(=O)c(C#N)c2c1CCC2`, the results for the IC50 in assay [1] and in assay [2] were > 10 µM (inactive) and over 10 µM, respectively.

On to `C=C(C)C1CC=C(CN2CC(C)OC(C)C2)CC1` (stereo unspecified), for which the IC50 is 4.44 µM in assay [1] and over 10 µM in assay [2].

With `O=C(COc1ccc(Cl)cc1Cl)NCCCN1CCOCC1`, the IC50 in assay [1] was 20.8 µM; in assay [2], over 10 µM.

For `CCOC(=O)C1CCN(Cc2cnc(Oc3ccc(Cl)cc3C)s2)CC1`, the IC50 was 26 µM in assay [1] and over 10 µM in assay [2].

Take `CCOC(=O)C1=C(CSc2nc(-c3ccccc3)ccc2C#N)OC(N)=C(C#N)C1c1cccnc1` (stereo unspecified): the IC50 was > 10 µM (inactive) in assay [1] and over 10 µM in assay [2].

As to `Cc1cccnc1Nc1nc(-c2ccccn2)cs1`, the results for the IC50 in assay [1] and in assay [2] were 22.7 µM and over 10 µM, respectively.

On to `O=C(NCC(c1cccnc1)N1CCN(c2ccccc2)CC1)C1CCCCC1` (stereo unspecified), for which the IC50 in assay [1] was > 10 µM (inactive); in assay [2] it was over 10 µM.

Turning to `O=C(COc1ccc(Cl)cc1Cl)N1CCN(C/C=C/c2ccccc2)CC1`, the IC50 is 1.46 µM in assay [1] and 7.14 µM in assay [2].

As to `C=CCc1ccccc1OCC(O)CN1CCN(Cc2ccc3c(c2)OCO3)CC1` (stereo unspecified), the IC50 was 4.4 µM in assay [1] and over 10 µM in assay [2].

In general, IC50 refers to the point on the concentration scale where inhibition reaches its midpoint.
